Data on two compounds can be found in patent publication US20220401564A1 (DANA-FARBER CANCER INSTITUTE, INC., priority 2019, published 2022).

One assay addresses HDAC3 (Homo sapiens, UniProt O15379). Put plainly: Change in cellular protein abundance (TMT proteomics) in Kelly cells. The format is cell-based. The arrangement: relative change in relative protein abundance with treatment of Kelly cells; endogenous in cells; host or cells: Kelly cells. As to conditions: for HDAC3 protein levels, relative protein abundance compared to DMSO control: scatter plots FIG. 1 and FIG. 3. On the procedure: (§1) Lysis buffer (8 M Urea, 50 mM NaCl, 50 mM 4-(2hydroxyethyl)-1-piperazineethanesulfonic acid (EPPS) pH 8.5, protease and phosphatase inhibitors from Roche®) were added to the cell pellets and homogenized by 20 passes through a 21 gauge (1.25 in. long) needle to achieve a cell lysate with a protein concentration between 1-4 mg mL-1. A micro-BCA assay (Pierce™) was used to determine the final protein concentration in the cell lysate. 200 μg of protein for each sample were reduced and alkylated as described in Donovan et al., Elife 7:e38430 (2018).
Proteins were precipitated using methanol/chloroform. Four volumes of methanol were added to the cell lysate, followed by one volume of chloroform, and finally three volumes of water. The mixture was vortexed and centrifuged to separate the chloroform phase from the aqueous phase. The precipitated protein was washed with three volumes of methanol, centrifuged and the resulting washed precipitated protein was allowed to air dry. The precipitated protein was resuspended in 4 M Urea, 50 mM HEPES pH 7.4, followed by dilution to 1 M urea with the addition of 200 mM EPPS, pH 8. Proteins were first digested with LysC (1:50; enzyme:protein) for 12 hours at room temperature. The LysC digestion was diluted to 0.5 M Urea with 200 mM EPPS pH 8 followed by digestion with trypsin (1:50; enzyme:protein) for 6 hours at 37° C. Tandem mass tag (TMT) reagents (Thermo Fisher Scientific) were dissolved in anhydrous acetonitrile (ACN) according to manufacturer's instructions.
Anhydrous ACN was added to each peptide sample to a final concentration of 30% v/v, and labeling was induced with the addition of TMT reagent to each sample at a ratio of 1:4 peptide:TMT label. The 10-plex labeling reactions were performed for 1.5 hours at room temperature and the reaction quenched by the addition of hydroxylamine to a final concentration of 0.3% for 15 minutes at room temperature. The sample channels were combined at a 1:1:1:1:1:1:1:1:1:1:1 ratio, desalted using Cis solid phase extraction cartridges (Waters®) and analyzed by LC-MS for channel ratio comparison. Samples were then combined using the adjusted volumes determined in the channel ratio analysis and dried down in a speed vacuum. The combined sample was then resuspended in 1% formic acid, and acidified (pH 2-3) before being subjected to desalting with C18 SPE (Sep-Pak®, Waters®). Samples were then offline fractionated into 96 fractions by high pH reverse-phase HPLC (Agilent® LC1260) through an aeris peptide xb-c18 column (Phenomenex®) with mobile phase A containing 5% acetonitrile and 10 mM NH4HCO3 in LC-MS grade H2O, and mobile phase B containing 90% acetonitrile and 10 mM NH4HCO3 in LC-MS grade H2O (both pH 8.0). The 96 resulting fractions were then pooled in a non-continuous manner into 24 fractions and these fractions were used for subsequent mass spectrometry analysis.
Data were collected using an Orbitrap Fusion™ Lumos™ mass spectrometer (Thermo Fisher Scientific, San Jose, Calif., USA) coupled with a Proxeon EASY-nLC™ 1200 LC pump (Thermo Fisher Scientific). Peptides were separated on an EasySpray™ ES803 75 μm inner diameter microcapillary column (ThermoFisher Scientific).
Each analysis used an MS3-based TMT method as described previously. The data were acquired using a mass range of m z 340-1350, resolution 120,000, automatic gain control (AGC) target 1×10^6, maximum injection time 100 ms, dynamic exclusion of 120 seconds for the peptide measurements in the Orbitrap Fusion™ Lumos™ mass spectrometer. Data dependent MS2 spectra were acquired in the ion trap with a normalized collision energy (NCE) set at 55%, AGC target set to 1.5×10^5 and a maximum injection time of 150 ms. […]

In assay [1] the test system is other identified HDAC proteins. The description is as above. The format is cell-based, human. The following applies: 1 μM, 5 hours, vs DMSO. How it is done: as §1
Proteins were precipitated using methanol/chloroform. Four volumes of methanol were added to the cell lysate, followed by one volume of chloroform, and finally three volumes of water. The mixture was vortexed and centrifuged to separate the chloroform phase from the aqueous phase. […]
Anhydrous ACN was added to each peptide sample to a final concentration of 30% v/v, and labeling was induced with the addition of TMT reagent to each sample at a ratio of 1:4 peptide:TMT label. […] The sample channels were combined at a 1:1:1:1:1:1:1:1:1:1:1 ratio, desalted using Cis solid phase extraction cartridges (Waters®) and analyzed by LC-MS for channel ratio comparison. Samples were then combined using the adjusted volumes determined in the channel ratio analysis and dried down in a speed vacuum. […]

The target in the next assay is T1, VHL (Homo sapiens, UniProt P40337).
T1 construct: Cells stably expressing the BRD4BD2-GFP with mCherry reporter (40) were seeded; endogenous in cells
The assay can be described thus: Cellular VHL engagement assay (BRD4BD2-GFP / mCherry reporter cells). The format is cell-based. The following applies: with 250 nM AT1, 5 h.

Broadly, the IC50 is the point on the concentration scale where inhibition reaches its midpoint. The low end stands for inhibition by little substance, the high end for a need for much substance.

“Also recorded” adds a separate entry of the source.

Sequence of HDAC3 (O15379 whole entry): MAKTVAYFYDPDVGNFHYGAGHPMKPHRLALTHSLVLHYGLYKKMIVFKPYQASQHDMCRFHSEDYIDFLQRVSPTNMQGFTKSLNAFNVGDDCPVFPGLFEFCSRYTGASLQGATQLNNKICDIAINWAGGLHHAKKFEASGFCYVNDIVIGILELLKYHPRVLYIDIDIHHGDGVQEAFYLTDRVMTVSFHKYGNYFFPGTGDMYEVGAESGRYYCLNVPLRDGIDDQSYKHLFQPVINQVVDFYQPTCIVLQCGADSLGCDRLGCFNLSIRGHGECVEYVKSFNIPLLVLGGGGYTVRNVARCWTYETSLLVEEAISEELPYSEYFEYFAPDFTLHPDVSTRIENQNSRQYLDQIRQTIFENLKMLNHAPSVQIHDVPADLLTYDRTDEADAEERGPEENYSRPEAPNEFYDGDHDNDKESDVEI
T1 sequence (P40337 whole entry, species assumed): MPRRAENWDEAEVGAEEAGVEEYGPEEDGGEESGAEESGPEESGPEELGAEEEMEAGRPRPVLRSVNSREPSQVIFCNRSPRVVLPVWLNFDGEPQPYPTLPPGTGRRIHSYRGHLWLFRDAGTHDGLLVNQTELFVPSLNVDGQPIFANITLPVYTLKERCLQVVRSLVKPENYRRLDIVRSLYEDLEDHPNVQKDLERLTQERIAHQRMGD

As for `Cc1ncsc1-c1ccc([C@H](C)NC(=O)[C@@H]2C[C@@H](O)CN2C(=O)[C@@H](NC(=O)CCOCCOCCN(CCc2c[nH]c3ccccc23)Cc2ccc(/C=C/C(=O)NO)cc2)C(C)(C)C)cc1` [Compound 2, (2S,4R)-1-((S)-14-(tert-butyl)-3-(4-((E)-3-(hydroxyamino)-3-oxoprop-1-en-1-yl)benzyl)-1-(1H-indol-3-yl)-12-oxo-6,9-dioxa-3,13-diazapentadecan-15-oyl)-4-hydroxy-N—((S)-1-(4-(4-methylthiazol-5-yl)phenyl)ethyl)pyrrolidine-2-carboxamide], the “cellular HDAC3 protein levels, change in relative protein abundance (heat map FIG. 2)” value on HDAC3 (1 μM, 5 hours, vs DMSO) was “down-regulation”. Moreover, on HDAC3, the “HDAC3 protein levels, relative protein abundance compared to DMSO control” value is “significant and selective reduction”. The “cellular protein levels of the other identified HDAC proteins (heat map FIG. 2)” value in assay [1] was “did not affect”. The compound also returned an IC50 against VHL of 11.7 µM.

`Cc1ncsc1-c1ccc(CNC(=O)[C@@H]2C[C@@H](O)CN2C(=O)[C@@H](NC(=O)C2(F)CC2)C(C)(C)C)c(OCCCCCN(CCc2c[nH]c3ccccc23)Cc2ccc(/C=C/C(=O)NO)cc2)c1` [Compound 7, (2S,4R)—N-(2-((5-((2-(1H-indol-3-yl)ethyl)(4-((E)-3-(hydroxyamino)-3-oxoprop-1-en-1-yl)benzyl)amino)pentyl)oxy)-4-(4-methylthiazol-5-yl)benzyl)-1-((S)-2-(1-fluorocyclopropane-1-carboxamido)-3,3-dimethylbutanoyl)-4-hydroxypyrrolidine-2-carboxamide]: the “HDAC3 protein levels, relative protein abundance compared to DMSO control” value on HDAC3 is “promote degradation; also recorded: significant and selective reduction”. At VHL, this compound displayed an IC50 of 9.4 µM.
